Measurements taken from ChEMBL document CHEMBL3860084, “Allyl and prenyl ethers of mansonone G, new potential semisynthetic antibacterial agents” (2016).
Values after ≈ are worked out from the molar mass of the structure shown.

Tests used:
[1] = tested on: Staphylococcus aureus; assay: Antibacterial activity against Staphylococcus aureus ATCC 25923 at 1000 uM after 24 hrs by agar well-diffusion method; assay type: functional; conditions: ATCC 25923, 24 h, read-out: DIZ
[2] = tested on: Cutibacterium acnes; assay: Antibacterial activity against Propionibacterium acnes KCCM 41747 by resazurin based broth microdilution method; assay type: functional
[3] = tested on: Streptococcus sobrinus; assay: Antibacterial activity against Streptococcus sobrinus KCCM 11898 at 1000 uM after 24 hrs by agar well-diffusion method; assay type: functional; conditions: KCCM 11898, 24 h, read-out: DIZ
[4] = tested on: Streptococcus sobrinus; assay: Antibacterial activity against Streptococcus sobrinus KCCM 11898 by resazurin based broth microdilution method; assay type: functional
[5] = tested on: Staphylococcus aureus; assay: Antibacterial activity against Staphylococcus aureus ATCC 25923 by resazurin based broth microdilution method; assay type: functional
[6] = tested on: Streptococcus mutans; assay: Antibacterial activity against Streptococcus mutans ATCC 25175 by resazurin based broth microdilution method; assay type: functional
[7] = tested on: Salmonella typhi; assay: Antibacterial activity against Salmonella typhi ATCC 422 by resazurin based broth microdilution method; assay type: functional, Salmonella enterica subsp. enterica serovar Typhi; conditions: Salmonella enterica
[8] = tested on: Salmonella typhi; assay: Antibacterial activity against Salmonella typhi ATCC 422 at 1000 uM after 24 hrs by agar well-diffusion method; assay type: functional, Salmonella enterica subsp. enterica serovar Typhi; conditions: Salmonella enterica, ATCC 422, 24 h; read-out: DIZ
[9] = tested on: Cutibacterium acnes; assay: Antibacterial activity against Propionibacterium acnes KCCM 41747 at 1000 uM after 24 hrs by agar well-diffusion method; assay type: functional; conditions: KCCM 41747, 24 h, read-out: DIZ
[10] = tested on: Streptococcus mutans; assay: Antibacterial activity against Streptococcus mutans ATCC 25175 at 1000 uM after 24 hrs by agar well-diffusion method; assay type: functional; conditions: ATCC 25175, 24 h, read-out: DIZ
[11] = tested on: Streptococcus mutans; assay: Antibacterial activity against Streptococcus mutans ATCC 25175 at 500 uM after 24 hrs by agar well-diffusion method; assay type: functional; conditions: ATCC 25175, 24 h, read-out: DIZ
[12] = tested on: Cutibacterium acnes; assay: Antibacterial activity against Propionibacterium acnes KCCM 41747 at 500 uM after 24 hrs by agar well-diffusion method; assay type: functional; conditions: KCCM 41747, 24 h, read-out: DIZ
[13] = tested on: Streptococcus sobrinus; assay: Antibacterial activity against Streptococcus sobrinus KCCM 11898 at 500 uM after 24 hrs by agar well-diffusion method; assay type: functional; conditions: KCCM 11898, 24 h, read-out: DIZ
[14] = tested on: Salmonella typhi; assay: Antibacterial activity against Salmonella typhi ATCC 422 at 500 uM after 24 hrs by agar well-diffusion method; assay type: functional, Salmonella enterica subsp. enterica serovar Typhi; conditions: Salmonella enterica, ATCC 422, 24 h; read-out: DIZ
[15] = tested on: Staphylococcus aureus; assay: Antibacterial activity against Staphylococcus aureus ATCC 25923 at 500 uM after 24 hrs by agar well-diffusion method; assay type: functional; conditions: ATCC 25923, 24 h, read-out: DIZ

| SMILES | zone of inhibition at 1000 µM [1] | MIC [2] | zone of inhibition at 1000 µM [3] | MIC [4] | MIC [5] | MIC [6] | MIC [7] | zone of inhibition at 1000 µM [8] | zone of inhibition at 1000 µM [9] | zone of inhibition at 1000 µM [10] | zone of inhibition at 500 µM [11] | zone of inhibition at 500 µM [12] | zone of inhibition at 500 µM [13] | zone of inhibition at 500 µM [14] | zone of inhibition at 500 µM [15] |
| --- | --- | --- | --- | --- | --- | --- | --- | --- | --- | --- | --- | --- | --- | --- | --- |
| CC1=C2OCC(C)c3c(O)cc(C)c(c32)C(=O)C1=O (stereo not given) | 12 mm | 125 µM (≈ 32.3 µg/mL) | 8.3 mm | 62.5 µM (≈ 16.1 µg/mL) | 250 µM (≈ 64.6 µg/mL) | 62.5 µM (≈ 16.1 µg/mL) | 31.2 µM (≈ 8.07 µg/mL) | 11 mm | 11.9 mm | 10.3 mm | – | – | – | – | – |
| CCOc1cc(C)c2c(c1C(C)C)C=C(C)C(=O)C2=O | 16 mm | 62.5 µM (≈ 17 µg/mL) | 14 mm | 31.2 µM (≈ 8.51 µg/mL) | – | 62.5 µM (≈ 17 µg/mL) | – | 10.8 mm | 13.3 mm | 18 mm | – | – | – | – | – |
| CC1=Cc2c(C(C)C)ccc(C)c2C(=O)C1=O | 12.7 mm | 62.5 µM (≈ 14.3 µg/mL) | 9.3 mm | 31.2 µM (≈ 7.13 µg/mL) | 62.5 µM (≈ 14.3 µg/mL) | 15.6 µM (≈ 3.56 µg/mL) | 31.2 µM (≈ 7.13 µg/mL) | 11.3 mm | 13.3 mm | 13.7 mm | – | – | – | – | – |
| CCCCCC(=O)Oc1cc(C)c2c(c1C(C)C)C=C(C)C(=O)C2=O | 14.7 mm | – | 12.7 mm | – | – | – | – | 9.7 mm | 11.6 mm | 12 mm | – | – | – | – | – |
| CCCCCCCCCC(=O)Oc1cc(C)c2c(c1C(C)C)C=C(C)C(=O)C2=O | 7 mm | – | 10.7 mm | – | – | – | – | 8.2 mm | 11.4 mm | 9.7 mm | – | – | – | – | – |
| CC1=Cc2c(c(C)cc(O)c2C(C)C)C(=O)C1=O [MANSONONE G] | 13.7 mm | 31.2 µM (≈ 7.63 µg/mL) | 10 mm | 31.2 µM (≈ 7.63 µg/mL) | 62.5 µM (≈ 15.3 µg/mL) | 31.2 µM (≈ 7.63 µg/mL) | 15.6 µM (≈ 3.81 µg/mL) | 11.9 mm | 15.6 mm | 14.7 mm | – | – | – | – | – |
| COc1cc(C)c2c(c1C(C)C)C=C(C)C(=O)C2=O | 15.3 mm | – | 10.7 mm | – | – | – | – | 10.7 mm | 13.2 mm | 11.3 mm | – | – | – | – | – |
| CC(C)=CCOc1cc(C)c2c(c1C(C)C)C=C(C)C(=O)C2=O | 23.7 mm | 31.2 µM (≈ 9.76 µg/mL) | 16.7 mm | 31.2 µM (≈ 9.76 µg/mL) | 0.975 µM (≈ 0.305 µg/mL) | 31.2 µM (≈ 9.76 µg/mL) | 62.5 µM (≈ 19.5 µg/mL) | 16.3 mm | 15 mm | 17.7 mm | – | – | – | – | – |
| O=C(N[C@H](CO)[C@H](O)c1ccc([N+](=O)[O-])cc1)C(Cl)Cl [CHLORAMPHENICOL] | – | – | – | – | – | – | – | – | – | – | 25.7 mm | 30 mm | 25.3 mm | 24.8 mm | 20.7 mm |
| CCCC(=O)Oc1cc(C)c2c(c1C(C)C)C=C(C)C(=O)C2=O | 18 mm | – | 13.7 mm | – | 62.5 µM (≈ 19.6 µg/mL) | – | – | 10.7 mm | 13 mm | 12.7 mm | – | – | – | – | – |
| CC1=C2OCC(C)c3ccc(C)c(c32)C(=O)C1=O (stereo not given) [MANSONONE E] | 19.7 mm | 31.2 µM (≈ 7.57 µg/mL) | 16.7 mm | 15.6 µM (≈ 3.78 µg/mL) | 31.2 µM (≈ 7.57 µg/mL) | 3.9 µM (≈ 0.945 µg/mL) | 15.6 µM (≈ 3.78 µg/mL) | 11.6 mm | 13.5 mm | 20.3 mm | – | – | – | – | – |
| CCCCCCCC(=O)Oc1cc(C)c2c(c1C(C)C)C=C(C)C(=O)C2=O | 8.7 mm | – | 11.3 mm | – | – | – | – | 9.6 mm | 11.5 mm | 10.3 mm | – | – | – | – | – |
| CCCCCCCCCCCCOc1cc(C)c2c(c1C(C)C)C=C(C)C(=O)C2=O | 9 mm | – | 8 mm | – | – | – | – | 11.5 mm | 11.9 mm | 9 mm | – | – | – | – | – |
| CCCCCCCCOc1cc(C)c2c(c1C(C)C)C=C(C)C(=O)C2=O | 20 mm | 31.2 µM (≈ 11.1 µg/mL) | 15.7 mm | 31.2 µM (≈ 11.1 µg/mL) | 15.6 µM (≈ 5.56 µg/mL) | 31.2 µM (≈ 11.1 µg/mL) | 31.2 µM (≈ 11.1 µg/mL) | 16.3 mm | 14.6 mm | 20 mm | – | – | – | – | – |
| CC(C)=CCC/C(C)=C/COc1cc(C)c2c(c1C(C)C)C=C(C)C(=O)C2=O | 14 mm | – | 11.5 mm | – | – | – | 125 µM (≈ 47.6 µg/mL) | 14 mm | 11.1 mm | 16.2 mm | – | – | – | – | – |
| C=CCOc1cc(C)c2c(c1C(C)C)C=C(C)C(=O)C2=O | 23 mm | 31.2 µM (≈ 8.89 µg/mL) | 16 mm | 15.6 µM (≈ 4.44 µg/mL) | 0.975 µM (≈ 0.277 µg/mL) | 31.2 µM (≈ 8.89 µg/mL) | 62.5 µM (≈ 17.8 µg/mL) | 14.5 mm | 14.8 mm | 17.3 mm | – | – | – | – | – |
| CCCCOc1cc(C)c2c(c1C(C)C)C=C(C)C(=O)C2=O | 18 mm | 15.6 µM (≈ 4.69 µg/mL) | 15.5 mm | 125 µM (≈ 37.5 µg/mL) | 15.6 µM (≈ 4.69 µg/mL) | 7.8 µM (≈ 2.34 µg/mL) | 3.9 µM (≈ 1.17 µg/mL) | 12 mm | 13.6 mm | 18.3 mm | – | – | – | – | – |
